Columns and labels:
[1] = Pharmacokinetics in rats with ABT pretreatment (intestinal and hepatic availability); conditions: for concentration at 0.033 h / concentration at 0.083 h / concentration at 8 h / concentration at 12 h / concentration at 24 h / concentration at 0.25 h / concentration at 0.5 h / concentration at 1 h / concentration at 2 h / concentration at 4 h / concentration at 6 h / AUC(0-t) / AUC(0-inf) / MRT last / Vd / clearance / half-life / bioavailability / Cmax / Tmax: rat, plasma; for concentration at 0.033 h / concentration at 0.083 h / concentration at 8 h / concentration at 12 h / concentration at 24 h / concentration at 0.25 h / concentration at 0.5 h / concentration at 1 h / concentration at 2 h / concentration at 4 h / concentration at 6 h: Plasma concentration; for concentration at 0.033 h / concentration at 0.083 h / concentration at 8 h / concentration at 12 h / concentration at 24 h / concentration at 0.25 h / concentration at 0.5 h / concentration at 1 h / concentration at 2 h / concentration at 4 h / concentration at 6 h / AUC(0-inf) / MRT last / E g (gut extraction) / E h (hepatic extraction) / F g / F h / F p.o. / reduction of systemic clearance: rats; for MRT last: MRT(0–t)
[2] = Mass balance study in rats via oral administration; conditions: rat, feces
[3] = Blood/plasma partitional ratio, human blood; format: in vitro ADME; conditions: fresh pooled whole blood with heparin, human whole blood, 37°C, read-out: blood/plasma partitioning (R b/P)
Method: The blood/plasma partitional ratio (R b/p) in rat and human blood was measured in vitro using fresh pooled blood including heparin. Whole blood was preincubated at 37°C in a water bath, and spiked with YL-IPA08 at 1 µM. The blood samples were incubated at 37°C for 1 h. After incubation, aliquots of 25 µl spiked whole blood were removed, and the remaining blood was centrifuged at 2,000 × g for 10 min, after which 25 µl aliquots of plasma were removed. Obtained blood and plasma samples were spiked with same volume of blank plasma or blood, respectively, and then immediately precipitated by adding 4× volumes of acetonitrile containing IS to get the same matrix. The concentrations of YL-IPA08 in blood and plasma were determined by LC-MS/MS.

[4] = iv, 0.1 mg/kg, p.o. ABT, i.v. YL-IPA08 (0.1 mg/kg)
[5] = iv, 0.1 mg/kg, with ABT 100 mg/kg p.o., 15 h before dosing
[6] = iv, 0.5 mg/kg, i.v. ABT, i.v. YL-IPA08 (0.5 mg/kg)
[7] = iv, 0.5 mg/kg, with ABT 50 mg/kg i.v., 1 h before dosing
[8] = po, 1 mg/kg, i.v. ABT, p.o. YL-IPA08 (1 mg/kg)
[9] = po, 1 mg/kg, p.o. ABT, p.o. YL-IPA08 (1 mg/kg)
[10] = po, 1 mg/kg, with ABT 50 mg/kg i.v., 1 h before dosing
[11] = po, 1 mg/kg, with ABT 100 mg/kg p.o., 15 h before dosing

SMILES: CCN(Cc1ccccn1)C(=O)Cc1c(-c2ccc(Cl)c(Cl)c2)nc2cc(C)ccn12 [YL-IPA08]
- concentration at 0.033 h ([1]; intravenous, 0.1 mg/kg, p.o. 100 mg/kg ABT, i.v. 0.1 mg/kg YL-IPA08, 0.033 h): 0.465 ± 0.0687 µg/mL
- concentration at 0.083 h ([1]; intravenous, 0.1 mg/kg, p.o. 100 mg/kg ABT, i.v. 0.1 mg/kg YL-IPA08, 0.083 h): 0.398 ± 0.0513 µg/mL
- concentration at 8 h ([1]; intravenous, 0.1 mg/kg, p.o. 100 mg/kg ABT, i.v. 0.1 mg/kg YL-IPA08, 8 h): 0.00897 ± 0.00263 µg/mL
- concentration at 12 h ([1]; intravenous, 0.1 mg/kg, p.o. 100 mg/kg ABT, i.v. 0.1 mg/kg YL-IPA08, 12 h): 0.00458 ± 0.00117 µg/mL
- concentration at 24 h ([1]; intravenous, 0.1 mg/kg, p.o. 100 mg/kg ABT, i.v. 0.1 mg/kg YL-IPA08, 24 h): 0.00065 ± 0.00029 µg/mL
- concentration at 0.033 h ([1]; intravenous, 0.5 mg/kg, i.v. 50 mg/kg ABT, i.v. 0.5 mg/kg YL-IPA08, 0.033 h): 0.399 ± 0.0778 µg/mL
- concentration at 0.083 h ([1]; intravenous, 0.5 mg/kg, i.v. 50 mg/kg ABT, i.v. 0.5 mg/kg YL-IPA08, 0.083 h): 0.285 ± 0.0282 µg/mL
- concentration at 12 h ([1]; intravenous, 0.5 mg/kg, i.v. 50 mg/kg ABT, i.v. 0.5 mg/kg YL-IPA08, 12 h): 0.00673 ± 0.00247 µg/mL
- concentration at 24 h ([1]; intravenous, 0.5 mg/kg, i.v. 50 mg/kg ABT, i.v. 0.5 mg/kg YL-IPA08, 24 h): 0.00201 ± 0.00093 µg/mL
- concentration at 0.25 h ([1]; intravenous, i.v. 50 mg/kg ABT, i.v. 0.5 mg/kg YL-IPA08, 0.25 h): 0.208 ± 0.0294 µg/mL
- concentration at 0.5 h ([1]; intravenous, i.v. 50 mg/kg ABT, i.v. 0.5 mg/kg YL-IPA08, 0.5 h): 0.156 ± 0.0215 µg/mL
- concentration at 1 h ([1]; intravenous, i.v. 50 mg/kg ABT, i.v. 0.5 mg/kg YL-IPA08, 1 h): 0.113 ± 0.0147 µg/mL
- concentration at 2 h ([1]; intravenous, i.v. 50 mg/kg ABT, i.v. 0.5 mg/kg YL-IPA08, 2 h): 0.0548 ± 0.0118 µg/mL
- concentration at 4 h ([1]; intravenous, i.v. 50 mg/kg ABT, i.v. 0.5 mg/kg YL-IPA08, 4 h): 0.0175 ± 0.00536 µg/mL
- concentration at 6 h ([1]; intravenous, i.v. 50 mg/kg ABT, i.v. 0.5 mg/kg YL-IPA08, 6 h): 0.0108 ± 0.00307 µg/mL
- concentration at 8 h ([1]; intravenous, i.v. 50 mg/kg ABT, i.v. 0.5 mg/kg YL-IPA08, 8 h): 0.00891 ± 0.00306 µg/mL
- concentration at 0.25 h ([1]; intravenous, p.o. 100 mg/kg ABT, i.v. 0.1 mg/kg YL-IPA08, 0.25 h): 0.266 ± 0.0552 µg/mL
- concentration at 0.5 h ([1]; intravenous, p.o. 100 mg/kg ABT, i.v. 0.1 mg/kg YL-IPA08, 0.5 h): 0.245 ± 0.0304 µg/mL
- concentration at 1 h ([1]; intravenous, p.o. 100 mg/kg ABT, i.v. 0.1 mg/kg YL-IPA08, 1 h): 0.192 ± 0.0165 µg/mL
- concentration at 2 h ([1]; intravenous, p.o. 100 mg/kg ABT, i.v. 0.1 mg/kg YL-IPA08, 2 h): 0.114 ± 0.0137 µg/mL
- concentration at 4 h ([1]; intravenous, p.o. 100 mg/kg ABT, i.v. 0.1 mg/kg YL-IPA08, 4 h): 0.0387 ± 0.0137 µg/mL
- concentration at 6 h ([1]; intravenous, p.o. 100 mg/kg ABT, i.v. 0.1 mg/kg YL-IPA08, 6 h): 0.0145 ± 0.00366 µg/mL
- AUC(0-t) ([1]; iv, 0.1 mg/kg): 0.125 ± 0.0469 µg·h/mL
- AUC(0-inf) [1, 4]: 0.126 ± 0.0466 µg·h/mL
- MRT last [1, 4]: 5.45 ± 0.66 h
- Vd [1, 5]: 1.54 ± 0.49 L/kg
- clearance [1, 5]: 0.899 ± 0.287 L/h/kg
- half-life [1, 5]: 1.19 ± 0.12 h
- AUC(0-t) ([1]; iv, 0.5 mg/kg): 0.472 ± 0.0643 µg·h/mL
- AUC(0-inf) [1, 6]: 0.476 ± 0.0658 µg·h/mL
- MRT last [1, 6]: 3.82 ± 0.32 h
- Vd [1, 7]: 2.24 ± 0.28 L/kg
- clearance [1, 7]: 1.07 ± 0.164 L/h/kg
- half-life [1, 7]: 1.46 ± 0.14 h
- concentration at 0.083 h ([1]; oral, 1 mg/kg, i.v. 50 mg/kg ABT, p.o. 1mg/kg YL-IPA08, 0.083 h): 0.00932 ± 0.00718 µg/mL
- concentration at 8 h ([1]; oral, 1 mg/kg, i.v. 50 mg/kg ABT, p.o. 1mg/kg YL-IPA08, 8 h): 0.00451 ± 0.00258 µg/mL
- concentration at 12 h ([1]; oral, 1 mg/kg, i.v. 50 mg/kg ABT, p.o. 1mg/kg YL-IPA08, 12 h): 0.00398 ± 0.00424 µg/mL
- concentration at 24 h ([1]; oral, 1 mg/kg, i.v. 50 mg/kg ABT, p.o. 1mg/kg YL-IPA08, 24 h): 0.00128 ± 0.00053 µg/mL
- concentration at 0.083 h ([1]; oral, 1 mg/kg, p.o. 100 mg/kg ABT, p.o. 1 mg/kg YL-IPA08, 0.083 h): 0.546 ± 0.637 µg/mL
- concentration at 8 h ([1]; oral, 1 mg/kg, p.o. 100 mg/kg ABT, p.o. 1 mg/kg YL-IPA08, 8 h): 0.0342 ± 0.0196 µg/mL
- concentration at 12 h ([1]; oral, 1 mg/kg, p.o. 100 mg/kg ABT, p.o. 1 mg/kg YL-IPA08, 12 h): 0.0174 ± 0.0085 µg/mL
- concentration at 24 h ([1]; oral, 1 mg/kg, p.o. 100 mg/kg ABT, p.o. 1 mg/kg YL-IPA08, 24 h): 0.00139 ± 0.00098 µg/mL
- bioavailability ([1]; oral, 1 mg/kg, with ABT 50 mg/kg i.v., 1 h before dosing): 19.7%
- concentration at 0.25 h ([1]; oral, i.v. 50 mg/kg ABT, p.o. 1mg/kg YL-IPA08, 0.25 h): 0.0282 ± 0.0252 µg/mL
- concentration at 0.5 h ([1]; oral, i.v. 50 mg/kg ABT, p.o. 1mg/kg YL-IPA08, 0.5 h): 0.0303 ± 0.0353 µg/mL
- concentration at 1 h ([1]; oral, i.v. 50 mg/kg ABT, p.o. 1mg/kg YL-IPA08, 1 h): 0.0348 ± 0.0504 µg/mL
- concentration at 2 h ([1]; oral, i.v. 50 mg/kg ABT, p.o. 1mg/kg YL-IPA08, 2 h): 0.0305 ± 0.042 µg/mL
- concentration at 4 h ([1]; oral, i.v. 50 mg/kg ABT, p.o. 1mg/kg YL-IPA08, 4 h): 0.0133 ± 0.0171 µg/mL
- concentration at 6 h ([1]; oral, i.v. 50 mg/kg ABT, p.o. 1mg/kg YL-IPA08, 6 h): 0.0064 ± 0.00473 µg/mL
- concentration at 0.25 h ([1]; oral, p.o. 100 mg/kg ABT, p.o. 1 mg/kg YL-IPA08, 0.25 h): 0.403 ± 0.402 µg/mL
- concentration at 0.5 h ([1]; oral, p.o. 100 mg/kg ABT, p.o. 1 mg/kg YL-IPA08, 0.5 h): 0.37 ± 0.354 µg/mL
- concentration at 1 h ([1]; oral, p.o. 100 mg/kg ABT, p.o. 1 mg/kg YL-IPA08, 1 h): 0.334 ± 0.247 µg/mL
- concentration at 2 h ([1]; oral, p.o. 100 mg/kg ABT, p.o. 1 mg/kg YL-IPA08, 2 h): 0.246 ± 0.15 µg/mL
- concentration at 4 h ([1]; oral, p.o. 100 mg/kg ABT, p.o. 1 mg/kg YL-IPA08, 4 h): 0.125 ± 0.0717 µg/mL
- concentration at 6 h ([1]; oral, p.o. 100 mg/kg ABT, p.o. 1 mg/kg YL-IPA08, 6 h): 0.0477 ± 0.0286 µg/mL
- AUC(0-t) ([1]; po, 1 mg/kg): 0.185 ± 0.148 µg·h/mL
- AUC(0-inf) [1, 8]: 0.188 ± 0.146 µg·h/mL
- AUC(0-inf) [1, 9]: 0.876 ± 0.183 µg·h/mL
- MRT last [1, 8]: 8.37 ± 3.67 h
- MRT last [1, 9]: 5.51 ± 1.25 h
- Cmax [1, 10]: 0.0418 ± 0.042 µg/mL
- Tmax [1, 10]: 0.87 ± 0.68 h
- AUC(0-t) [1, 11]: 0.868 ± 0.185 µg·h/mL
- Cmax [1, 11]: 0.176 ± 0.0885 µg/mL
- Tmax [1, 11]: 1.4 ± 1.32 h
- bioavailability [1, 11]: 69.7%
- E g (gut extraction) ([1]; ABT i.v.): 75%
- E h (hepatic extraction) ([1]; ABT i.v.): 20%
- F g ([1]; ABT i.v.): 25%
- F h ([1]; ABT i.v.): 80%
- F p.o. ([1]; ABT i.v.): ~20%
- E g (gut extraction) ([1]; ABT p.o.): 16%
- E h (hepatic extraction) ([1]; ABT p.o.): 17%
- F g ([1]; ABT p.o.): 84%
- F h ([1]; ABT p.o.): 83%
- F p.o. ([1]; ABT p.o.): ~70%
- reduction of systemic clearance ([1]; ABT pretreatment through i.v. injection): about 75%
- reduction of systemic clearance ([1]; ABT pretreatment through oral gavage): ~80%
- E g (gut extraction) ([1]; No ABT): 65%
- E h (hepatic extraction) ([1]; No ABT): 83%
- F g ([1]; No ABT): 35%
- F h ([1]; No ABT): 17%
- F p.o. ([1]; No ABT): 6%
- dose excreted [2]: 0.004%
- blood plasma ratio at 1 h, 1 µM [3]: 1.58 ± 0.06

— PMC7732531 (Frontiers in Pharmacology, 2020)
